US20050245399A1, “Pyrazole derivatives as herbicidal compositions containing them” (ISHIHARA SANGYO KAISHA, LTD., priority 2004, published 2005)

How the values were obtained:
[1] = system: soybean (Glycine max Merr.), GLXMA; test: Test Example 2 post-emergence (foliage treatment) herbicidal activity, GLXMA; format: in vivo; settings: 63 g a.i./ha
How it was run: (§1)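 A small sprayer delivered the diluted WP or EC formulation (500 L/ha water, 0.1% v/v spreader) over emerged seedlings in upland soil pots. Damage relative to untreated plants was graded visually from 0 to 100% three weeks or so later (days 20-23).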

[2] = system: prickly sida (Sida spinosa L.): SEDSP; test: Test Example 1 pre-emergence herbicidal activity, SIDSP; format: in vivo; settings: Rate 63 g a.i./ha, visually observed 20th to 23rd day after application
How it was run: (§2)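 Read-out: visual growth control (%, 0–100, 100 = complete kill) assessed 20 to 23 days post-treatment. Compound was applied pre-emergence by small sprayer, one day after sowing into upland soil pots, in 500 L/ha water.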

[3] = system: wheat (Triticum aestivum L.), TRZAX; test: Test Example 2 post-emergence (foliage treatment) herbicidal activity, TRZAX; format: in vivo; settings: 63 g a.i./ha
How it was run: as §1

[4] = system: soybean (Glycine max Merr.): GLXMA; test: Test Example 1 pre-emergence herbicidal activity, GLXMA; format: in vivo; settings: Rate 63 g a.i./ha, visually observed 20th to 23rd day after application
How it was run: as §2

[5] = system: barnyardgrass (Echinochloa crus-galli L.): ECHCG; test: Test Example 1 pre-emergence herbicidal activity, ECHCG; format: in vivo; settings: Rate 63 g a.i./ha, visually observed 20th to 23rd day after application
How it was run: as §2

[6] = system: redroot pigweed (Amaranthus retroflexus L.): AMARE; test: Test Example 1 pre-emergence herbicidal activity, AMARE; format: in vivo; settings: Rate 63 g a.i./ha, visually observed 20th to 23rd day after application
How it was run: as §2

[7] = system: corn (Zea mays L.), ZEAMX; test: Test Example 2 post-emergence (foliage treatment) herbicidal activity, ZEAMX; format: in vivo; settings: 63 g a.i./ha
How it was run: as §1

[8] = system: rice (Oryza sativa L.), ORYSA; test: Test Example 2 post-emergence (foliage treatment) herbicidal activity, ORYSA; format: in vivo; settings: 63 g a.i./ha
How it was run: (§3)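 Post-emergence, upland soil pots; leaf stage at spray: ECHCG 1.1-2.1 / DIGSA 1.0-2.0 / AMARE 0.1-1.5 / ORYSA 1.0-2. WP or EC formulation, set active ingredient rate, 500 L/ha water + 0.1% v/v spreader. Visual rating at d20-23, % control 0-100.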

[9] = system: velvetleaf (Abutilon theophrasti), ABUTH; test: Test Example 2 post-emergence (foliage treatment) herbicidal activity, ABUTH; format: in vivo; settings: 63 g a.i./ha
How it was run: as §1

[10] = system: redroot pigweed (Amaranthus retroflexus L.), AMARE; test: Test Example 2 post-emergence (foliage treatment) herbicidal activity, AMARE; format: in vivo; settings: 63 g a.i./ha
How it was run: as §3

[11] = system: wheat (Triticum aestivum L.): TRZAX; test: Test Example 1 pre-emergence herbicidal activity, TRZAX; format: in vivo; settings: Rate 63 g a.i./ha, visually observed 20th to 23rd day after application
How it was run: as §2

[12] = system: corn (Zea mays L.): ZEAMX; test: Test Example 1 pre-emergence herbicidal activity, ZEAMX; format: in vivo; settings: Rate 63 g a.i./ha, visually observed 20th to 23rd day after application
How it was run: as §2

[13] = system: green foxtail (Setaria viridis L.): SETVI; test: Test Example 1 pre-emergence herbicidal activity, SETVI; format: in vivo; settings: Rate 63 g a.i./ha, visually observed 20th to 23rd day after application
How it was run: as §2

[14] = system: barnyardgrass (Echinochloa crus-galli L.), ECHCG; test: Test Example 2 post-emergence (foliage treatment) herbicidal activity, ECHCG; format: in vivo; settings: 63 g a.i./ha
How it was run: as §3

[15] = system: rice (Oryza sativa L.): ORYSA; test: Test Example 1 pre-emergence herbicidal activity, ORYSA; format: in vivo; settings: Rate 63 g a.i./ha, visually observed 20th to 23rd day after application
How it was run: as §2

[16] = system: velvetleaf (Abutilon theophrasti): ABUTH; test: Test Example 1 pre-emergence herbicidal activity, ABUTH; format: in vivo; settings: Rate 63 g a.i./ha, visually observed 20th to 23rd day after application
How it was run: as §2

[17] = system: green foxtail (Setaria viridis L.), SETVI; test: Test Example 2 post-emergence (foliage treatment) herbicidal activity, SETVI; format: in vivo; settings: 63 g a.i./ha
How it was run: as §1

[18] = system: crabgrass (Digitaria sanguinalis L.): DIGSA; test: Test Example 1 pre-emergence herbicidal activity, DIGSA; format: in vivo; settings: Rate 63 g a.i./ha, visually observed 20th to 23rd day after application
How it was run: as §2

[19] = system: prickly sida (Sida spinosa L.), SIDSP; test: Test Example 2 post-emergence (foliage treatment) herbicidal activity, SIDSP; format: in vivo; settings: 63 g a.i./ha
How it was run: as §1

[20] = system: crabgrass (Digitaria sanguinalis L.), DIGSA; test: Test Example 2 post-emergence (foliage treatment) herbicidal activity, DIGSA; format: in vivo; settings: 63 g a.i./ha
How it was run: as §3

[21] = system: rice (Oryza sativa L.: ORYSA); test: Test Example 3 water application herbicidal activity (paddy), transplanted rice ORYSA; format: in vivo; settings: 63 g a.i./ha, water application 4th day after transplantation of 2 leaf stage rice, visually observed 21st day after application; 0 = untreated control, 100 = complete kill
How it was run: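 Compound, as diluted wettable powder or emulsifiable concentrate, was pipetted into flood water at a set active-ingredient dose. Weeds were treated at 0.5-leaf stage after sowing or tuber planting; 2-leaf rice 4 days post-transplant. Control scored visually, 0 untreated to 100 complete kill, weeds day 14, rice day 21.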

[22] = system: japanese bulrush (Scirpus juncoides: SCPJO); test: Test Example 3 water application herbicidal activity (paddy), SCPJO; format: in vivo; settings: 63 g a.i./ha, water application under submerged condition at 0.5 leaf stage, visually observed 14th day after application; 0 = untreated control, 100 = complete kill
How it was run: (§4)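 Submerged application in flooded paddy soil (3–4 cm water); weeds treated at 0.5-leaf stage, transplanted rice 4 d after transplanting. Scored visually as % growth control: weeds at 14 d, rice at 21 d.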

[23] = system: barnyardgrass (Echinochiloa oryzicola: ECHOR); test: Test Example 3 water application herbicidal activity (paddy), ECHOR; format: in vivo; settings: 63 g a.i./ha, water application under submerged condition at 0.5 leaf stage, visually observed 14th day after application; 0 = untreated control, 100 = complete kill
How it was run: as §4

[24] = system: japanese ribbon wapato (Sagittaria pygmaea: SA GPY); test: Test Example 3 water application herbicidal activity (paddy), SAGPY; format: in vivo; settings: 63 g a.i./ha, water application under submerged condition, tubers planted, visually observed 14th day after application; 0 = untreated control, 100 = complete kill
How it was run: as §4

Row | Compound | growth controlling degree, GLXMA [1] [%] | Pre-emergence Herbicidal Activity SIDSP (growth controlling degree) [2] [%] | growth controlling degree, TRZAX [3] [%] | Pre-emergence Herbicidal Activity GLXMA (growth controlling degree) [4] [%] | Pre-emergence Herbicidal Activity ECHCG (growth controlling degree) [5] [%] | Pre-emergence Herbicidal Activity AMARE (growth controlling degree) [6] [%] | growth controlling degree, ZEAMX [7] [%] | growth controlling degree, ORYSA [8] [%] | growth controlling degree, ABUTH [9] [%] | growth controlling degree, AMARE [10] [%] | Pre-emergence Herbicidal Activity TRZAX (growth controlling degree) [11] [%] | melting point [°C] | Pre-emergence Herbicidal Activity ZEAMX (growth controlling degree) [12] [%] | Pre-emergence Herbicidal Activity SETVI (growth controlling degree) [13] [%] | growth controlling degree, ECHCO [14] [%] | Pre-emergence Herbicidal Activity ORYSA (growth controlling degree) [15] [%] | Pre-emergence Herbicidal Activity ABUTH (growth controlling degree) [16] [%] | growth controlling degree, SETVI [17] [%] | Pre-emergence Herbicidal Activity DIGSP (growth controlling degree) [18] [%] | growth controlling degree, SIDSP [19] [%] | also measured
1 | COc1c(Cl)cc(F)c(-c2nn(C)c(OC(F)F)c2Cl)c1NC(=O)OCc1ccccn1 [Compound 1-69, [3-chloro-6-[4-chloro-5-(difluoromethoxy)-1-methyl-1H-pyrazol-3-yl]-5-fluoro-2-methoxyphenyl]-carbamic acid, 2-pyridinylmethyl ester] | 95 | 100 | 50 | 10 | 80 | 100 | 95 | 95 | 100 | 100 | 0 | 35 to 37 | 10 | 100 | 100 | 10 | 100 | 100 | 100 | 100 | growth controlling degree, DIGSP [20]: 70%
2 | COc1c(Cl)cc(F)c(-c2nn(C)c(OC(F)F)c2Cl)c1NC=O [Compound 1-4, [3-chloro-6-[4-chloro-5-(difluoromethoxy)-1-methyl-1H-pyrazol-3-yl]-5-fluoro-2-methoxyphenyl]-formamide] | 80 | 100 | 50 | 40 | 95 | 100 | 80 | 50 | 100 | 100 | 40 | 100 to 103 | 40 | 100 | 100 | 80 | 100 | 100 | 100 | 100 | growth controlling degrees (%) ORYSA [21]: 70%; growth controlling degrees (%) SCPJO [22]: 100%; growth controlling degrees (%) ECHOR [23]: 100%; growth controlling degrees (%) SAGPY [24]: 98%; growth controlling degree, DIGSP [20]: 100%
